Experimental data published in PubChem BioAssay AID2060510 (Molecular Pharmacology Branch, DTP, NCI, 2025).

System: 439559-082-T-J2-PDC spheroids viability
Assay: Anticancer human tumor 439559-082-T-J2-PDC patient-derived colon adenocarcinoma cell line growth inhibition [GQUAD]
Details: for IC50: curve of first compound; for viability, T/C: stronger effect = lower value
Source text: DNA G-quadruplex Stabilizer Agents in Combinations in Complex Spheroids
A high-throughput screen of multi-cell type tumor spheroids was designed to identify active combinations of DNA G-quadruplex stabilizer agents and targeted small molecules. Complex spheroids include a stromal component modeled by human endothelial cells (HUVEC) and fibroblasts modeled by human mesenchymal stem cells (MSCs). The concentration ranges selected for each drug and investigational agent were based upon clinically achievable concentrations if the clinical Cmax of the agent was known.
Compounds. The drugs and investigational agents: pidnarulex (CX-5461; NSC782164), APTO-253 (NSC789042), BRACO-19 (NSC847499), peposertib (NSC802822), ceralasertib (NSC780249), elimusertib (NSC800525), camonsertib (NSC841442), AZD-1390 (NSC803789), olaparib (NSC753686), talazoparib (NSC767125), ART-558 (NSC835418), sotorasib (NSC818433), MRTX-1133 (NSC836407), SN-38 (NSC673596), topotecan (NSC609699), etoposide (NSC141540), doxorubicin (NSC123127), gemcitabine (NSC613327), 5-fluorouracil (NSC19893), paclitaxel (NSC125973), vemurafenib (NSC761431), panobinostat (NSC761190), R-306465 (JNJ-16241199; NSC773264), adavosertib (NSC754352), TP-3654 (NSC805149), carboplatin (NSC241240), KSQ-4279 (NSC840948), and staurosporine (NSC755774) were obtained from the National Cancer Institute (NCI) Developmental Therapeutics Program Chemical Repository (34). The FDA-approved anticancer drug set is available from the NCI Developmental Therapeutics Program. […] The stock solutions were prepared in dimethyl sulfoxide (DMSO, Sigma-Aldrich, St. Louis, MO, cat. D2650) at 800-fold the tested concentration and stored at -70 degrees C prior to their use. All drugs and investigational agents were tested over a range starting from a high concentration at or near the clinical Cmax and decreasing in half-log increments. If the clinical Cmax for an agent had not been determined, the highest concentration tested was 10 microM.
2.3 Cell Culture. All cells were maintained in an incubator at 37 degrees C and 5% CO2 with 95% humidity. The PDC lines were cultured according to standard operating procedures established by the NCI PDMR. All PDCs were thawed and cultured in Matrigel-coated flasks prepared with a working solution of 1X Ham's F-12 nutrient mix, without supplementation (Invitrogen, cat. 11765054), 100 U/mL penicillin-streptomycin (Invitrogen, cat. 15140122), and 2.5% Matrigel (Corning Inc., cat. 354248) for the first three passages. The 857933-349-R-J2-PDC line was cultured in 6C/Colon 1B media, which includes advanced DMEM/F-12 (Thermo Fisher Scientific, cat. 12634028), 10 mM HEPES (Thermo Fisher Scientific, cat. 15630080), 1X GlutaMAX supplement (Thermo Fisher Scientific, cat. 35050061), 0.1 mg/mL primocin (InvivoGen, cat. ant-pm-2), 10% defined fetal bovine serum, heat inactivated (HyClone Laboratories Inc., cat. SH30070.03HI), 50% L-WRN conditioned media (ATCC, cat. CRL-3276), 1.25 mM N-Acetyl-L-cysteine (Sigma-Aldrich, cat. A9165), 10 mM nicotinamide (Sigma-Aldrich, cat. N0636), 1X B-27 supplement (Thermo Fisher Scientific, cat. 17504044), 1X N-2 supplement (Thermo Fisher Scientific, cat. 17502048), 10 microM Y-27632 dihydrochloride (Tocris Bioscience, cat. 1254), and 50 ng/mL human EGF recombinant protein (Thermo Fisher Scientific, cat. PHG0311). The 485176-168-R4-J1-PDC line was cultured in Panc media, which includes all 6C/Colon 1B media components plus 100 ng/mL human FGF-10 (Thermo Fisher Scientific, cat. 100-26), 500 nM SB-431542 (Selleckchem, cat. S1067), and gastrin (Tocris, cat. 3006).
[…]

[1] = second compound 0.0316 µM, first compound 0.0316 µM
[2] = second compound 0.0316 µM, first compound 0.1 µM
[3] = second compound 0.0316 µM, first compound 0.316 µM
[4] = second compound 0.0316 µM, first compound 1 µM
[5] = second compound 0.0316 µM, first compound 3.16 µM
[6] = second compound 0.0316 µM, first compound 10 µM
[7] = second compound 0.1 µM, first compound 0.0316 µM
[8] = second compound 0.1 µM, first compound 0.1 µM
[9] = second compound 0.1 µM, first compound 0.316 µM
[10] = second compound 0.1 µM, first compound 1 µM
[11] = second compound 0.1 µM, first compound 3.16 µM
[12] = second compound 0.1 µM, first compound 10 µM
[13] = second compound 0.316 µM, first compound 0.0316 µM
[14] = second compound 0.316 µM, first compound 0.1 µM
[15] = second compound 0.316 µM, first compound 0.316 µM
[16] = second compound 0.316 µM, first compound 1 µM
[17] = second compound 0.316 µM, first compound 3.16 µM
[18] = second compound 0.316 µM, first compound 10 µM
[19] = second compound 1 µM, first compound 0.0316 µM
[20] = second compound 1 µM, first compound 0.1 µM
[21] = second compound 1 µM, first compound 0.316 µM
[22] = second compound 1 µM, first compound 1 µM
[23] = second compound 1 µM, first compound 3.16 µM
[24] = second compound 1 µM, first compound 10 µM
[25] = second compound 3.16 µM, first compound 0.0316 µM
[26] = second compound 3.16 µM, first compound 0.1 µM
[27] = second compound 3.16 µM, first compound 0.316 µM
[28] = second compound 3.16 µM, first compound 1 µM
[29] = second compound 3.16 µM, first compound 3.16 µM
[30] = second compound 3.16 µM, first compound 10 µM
[31] = second compound 10 µM, first compound 0.0316 µM
[32] = second compound 10 µM, first compound 0.1 µM
[33] = second compound 10 µM, first compound 0.316 µM
[34] = second compound 10 µM, first compound 1 µM
[35] = second compound 10 µM, first compound 3.16 µM
[36] = second compound 10 µM, first compound 10 µM
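Further: spheroids exposed to the agents for 7 days before readout.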
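Wherever viability, T/C is given: percent of luminescence signal in DMSO vehicle wells taken as 100% viability.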

CC(C)(O)C1CCC(Nc2ccc3ncc(-c4cccc(C(F)(F)F)c4)n3n2)CC1 (centres undefined) + CN(C)c1ccc(Nc2c3ccc(NC(=O)CCN4CCCC4)cc3nc3cc(NC(=O)CCN4CCCC4)ccc23)cc1
IC50 (second compound 0.0316 µM): 1.6 µM
IC50 (second compound 0.1 µM): 1.65 µM
IC50 (second compound 0.316 µM): 1.82 µM
IC50 (second compound 1 µM): 1.66 µM
IC50 (second compound 3.16 µM): 1.78 µM
IC50 (second compound 10 µM): 1.58 µM
viability, T/C [1]: 92.7%
viability, T/C [2]: 94.7%
viability, T/C [3]: 94%
viability, T/C [4]: 78.1%
viability, T/C [5]: 8.9%
viability, T/C [6]: 9%
viability, T/C [7]: 117%
viability, T/C [8]: 111%
viability, T/C [9]: 108%
viability, T/C [10]: 77.5%
viability, T/C [11]: 13.9%
viability, T/C [12]: 10.1%
viability, T/C [13]: 104%
viability, T/C [14]: 96.9%
viability, T/C [15]: 91.8%
viability, T/C [16]: 90.3%
viability, T/C [17]: 12.7%
viability, T/C [18]: 10.6%
viability, T/C [19]: 98.8%
viability, T/C [20]: 101%
viability, T/C [21]: 107%
viability, T/C [22]: 82.1%
viability, T/C [23]: 7.17%
viability, T/C [24]: 11.9%
viability, T/C [25]: 98.8%
viability, T/C [26]: 101%
viability, T/C [27]: 103%
viability, T/C [28]: 89%
viability, T/C [29]: 7.84%
viability, T/C [30]: 13.6%
viability, T/C [31]: 100%
viability, T/C [32]: 110%
viability, T/C [33]: 109%
viability, T/C [34]: 77.1%
viability, T/C [35]: 9.39%
viability, T/C [36]: 7.34%

COc1cccc2c1C(=O)c1c(O)c3c(c(O)c1C2=O)CC(O)(C(=O)CO)CC3OC1CC(N)C(O)C(C)O1 (centres undefined) + CN(C)c1ccc(Nc2c3ccc(NC(=O)CCN4CCCC4)cc3nc3cc(NC(=O)CCN4CCCC4)ccc23)cc1
IC50 (second compound 0.0316 µM): 5.76 µM
IC50 (second compound 0.1 µM): 7.85 µM
IC50 (second compound 0.316 µM): 6.45 µM
IC50 (second compound 1 µM): 5.9 µM
IC50 (second compound 3.16 µM): 5.07 µM
IC50 (second compound 10 µM): 7.92 µM
viability, T/C [1]: 106%
viability, T/C [2]: 86.7%
viability, T/C [3]: 93.4%
viability, T/C [4]: 77.5%
viability, T/C [5]: 62.2%
viability, T/C [6]: 38.8%
viability, T/C [7]: 93.8%
viability, T/C [8]: 95.5%
viability, T/C [9]: 89.1%
viability, T/C [10]: 73.2%
viability, T/C [11]: 59.1%
viability, T/C [12]: 47.4%
viability, T/C [13]: 96.8%
viability, T/C [14]: 101%
viability, T/C [15]: 91.9%
viability, T/C [16]: 83.5%
viability, T/C [17]: 60.6%
viability, T/C [18]: 43.4%
viability, T/C [19]: 91.3%
viability, T/C [20]: 99.9%
viability, T/C [21]: 89.8%
viability, T/C [22]: 86.1%
viability, T/C [23]: 59.4%
viability, T/C [24]: 42%
viability, T/C [25]: 94.6%
viability, T/C [26]: 96.1%
viability, T/C [27]: 84%
viability, T/C [28]: 84.9%
viability, T/C [29]: 54.8%
viability, T/C [30]: 42.4%
viability, T/C [31]: 88.7%
viability, T/C [32]: 102%
viability, T/C [33]: 82.4%
viability, T/C [34]: 77.8%
viability, T/C [35]: 62.4%
viability, T/C [36]: 46.8%
